Test results published in publication PMC10269926, “The LiaFSR-LiaX System Mediates Resistance of Enterococcus faecium to Peptide Antibiotics and to Aureocin A53- and Enterocin L50-Like Bacteriocins” (Microbiology Spectrum, 2023).
≈ marks a conversion by molar mass, not a printed value. Read-outs that look alike come from different tables or passages of the source. Where no end group is shown, it is not given here.

Assays:
[1] = system: E. faecium MUT_147 (ΔliaFSR ΔliaX pGhost9 empty vector); assay: MIC50, microtiter plates with serial 2-fold dilutions; format: cell-based, Enterococcus faecium; details: microtiter 2-fold dilutions, at least 50% growth reduction, CM17 + 5 μg/mL Em, mean of three biological replicates
Method: (§1) The sensitivity of the mutants to AurA53- and EntL50-like bacteriocins, nisin, RAM, GRA, carbenicillin, and chlortetracycline was determined using microtiter plates with serial 2-fold dilutions of the antimicrobials, as described previously ([41]). The lowest concentration of the agent reducing visible bacterial growth by at least 50% was taken as the MIC (MIC50) value. The sensitivity to other antibiotics was determined using agar plates with antibiotic strips as described previously ([12]). The antibiotic concentration at the point where the inhibition zone intersected the strip was taken as the MIC value. The antibiotic susceptibilities of E. faecium LMGT 2783, MUT_130 to MUT_132, MUT_136 to MUT_139, and MUT_140 and MUT_141 were tested in ISO-BHI medium (Oxoid) supplemented with 5 μg/mL Em when appropriate, while those of E. faecium MUT_142 to MUT_149 were tested in CM17 medium supplemented with 5 μg/mL Em. To study the effects of NaCl and sodium dodecyl sulfate (SDS) on bacterial growth, saturated overnight cultures of E. faecium were used for inoculation at a dilution of 1:100 in BHI medium with serial dilutions of these compounds at concentrations of 0.5 to 10% (wt/vol) and 3.0 × 10^−2 to 2.5 × 10^−3% (wt/vol), respectively. Bacterial cultures were incubated at 37°C without shaking for 24 h in a Bioscreen turbidometric automated analyzer (Bioscreen C, Growth Curves Ltd., Finland) in Honeycomb 100-well plates (Oy Growth Curves Ab Ltd.). […] The assays were made at least in triplicate.

[2] = system: E. faecium MUT_145 (ΔliaFSR pGh:PptcB:liaR); assay: as above; format: cell-based, Enterococcus faecium; details: microtiter 2-fold dilutions, at least 50% growth reduction, CM17 + 5 μg/mL Em, mean of three biological replicates
Method: as §1

[3] = system: E. faecium LMGT 2783 (WT); assay: as above; format: cell-based, Enterococcus faecium; details: lowest concentration reducing visible growth by at least 50%, ISO-BHI medium, mean of three biological replicates
Method: as §1

[4] = system: E. faecium MUT_144 (ΔliaFSR pGh:PptcB:liaS); assay: as above; format: cell-based, Enterococcus faecium; details: microtiter 2-fold dilutions, at least 50% growth reduction, CM17 + 5 μg/mL Em, mean of three biological replicates
Method: as §1

[5] = system: E. faecium MUT_150 (ΔliaFSR ΔliaX pGh:PptcB:liaSR); assay: as above; format: cell-based, Enterococcus faecium; details: microtiter 2-fold dilutions, at least 50% growth reduction, CM17 + 5 μg/mL Em, mean of three biological replicates
Method: as §1

[6] = system: E. faecium MUT_149 (ΔliaFSR ΔliaX pGh:PptcB:liaR); assay: as above; format: cell-based, Enterococcus faecium; details: microtiter 2-fold dilutions, at least 50% growth reduction, CM17 + 5 μg/mL Em, mean of three biological replicates
Method: as §1

[7] = system: E. faecium MUT_143 (ΔliaFSR pGhost9 empty vector); assay: as above; format: cell-based, Enterococcus faecium; details: microtiter 2-fold dilutions, at least 50% growth reduction, CM17 + 5 μg/mL Em, mean of three biological replicates
Method: as §1

[8] = system: E. faecium MUT_148 (ΔliaFSR ΔliaX pGh:PptcB:liaS); assay: as above; format: cell-based, Enterococcus faecium; details: microtiter 2-fold dilutions, at least 50% growth reduction, CM17 + 5 μg/mL Em, mean of three biological replicates
Method: as §1

[9] = system: E. faecium MUT_146 (ΔliaFSR pGh:PptcB:liaSR); assay: as above; format: cell-based, Enterococcus faecium; details: microtiter 2-fold dilutions, at least 50% growth reduction, CM17 + 5 μg/mL Em, mean of three biological replicates
Method: as §1

[10] = system: E. faecium LMGT 2783 and its spontaneous mutants; assay: Effect of NaCl and SDS on bacterial growth (Bioscreen); format: cell-based, Enterococcus faecium; details: WT LMGT 2783 and all mutants, BHI, 37°C, 24 h, inoculum 1:100, lowest concentration (wt/vol) with at least 50% growth inhibition, at least triplicate
Method: The sensitivity of the mutants to AurA53- and EntL50-like bacteriocins, nisin, RAM, GRA, carbenicillin, and chlortetracycline was determined using microtiter plates with serial 2-fold dilutions of the antimicrobials, as described previously ([41]). The lowest concentration of the agent reducing visible bacterial growth by at least 50% was taken as the MIC (MIC50) value. The sensitivity to other antibiotics was determined using agar plates with antibiotic strips as described previously ([12]). The antibiotic concentration at the point where the inhibition zone intersected the strip was taken as the MIC value. The antibiotic susceptibilities of E. faecium LMGT 2783, MUT_130 to MUT_132, MUT_136 to MUT_139, and MUT_140 and MUT_141 were tested in ISO-BHI medium (Oxoid) supplemented with 5 μg/mL Em when appropriate, while those of E. faecium MUT_142 to MUT_149 were tested in CM17 medium supplemented with 5 μg/mL Em. To study the effects of NaCl and sodium dodecyl sulfate (SDS) on bacterial growth, saturated overnight cultures of E. faecium were used for inoculation at a dilution of 1:100 in BHI medium with serial dilutions of these compounds at concentrations of 0.5 to 10% (wt/vol) and 3.0 × 10^−2 to 2.5 × 10^−3% (wt/vol), respectively. […]

[11] = system: E. faecium MUT_140 (liaFSR deletion) and MUT_141 (liaFSR plus liaX deletion); assay: Susceptibility of deletion strains as a group (microtiter MIC50 or antibiotic strips); format: cell-based, Enterococcus faecium; details: for Effect of the deletions on sensitivity (in words): both deletion strains MUT_140 and MUT_141 compared with WT; for Fold increase in sensitivity relative to WT: both deletion strains MUT_140 and MUT_141
Method: as §1

[12] = system: E. faecium MUT_147 (ΔliaFSR ΔliaX pGhost9 empty vector); details: antibiotic strips on agar, CM17 + 5 μg/mL Em, mean of three biological replicates
Method: as §1

[13] = system: E. faecium MUT_145 (ΔliaFSR pGh:PptcB:liaR); details: antibiotic strips on agar, CM17 + 5 μg/mL Em, mean of three biological replicates
Method: as §1

[14] = system: E. faecium MUT_144 (ΔliaFSR pGh:PptcB:liaS); details: antibiotic strips on agar, CM17 + 5 μg/mL Em, mean of three biological replicates
Method: as §1

[15] = system: E. faecium MUT_150 (ΔliaFSR ΔliaX pGh:PptcB:liaSR); details: antibiotic strips on agar, CM17 + 5 μg/mL Em, mean of three biological replicates
Method: as §1

[16] = system: E. faecium MUT_149 (ΔliaFSR ΔliaX pGh:PptcB:liaR); details: antibiotic strips on agar, CM17 + 5 μg/mL Em, mean of three biological replicates
Method: as §1

[17] = system: E. faecium MUT_143 (ΔliaFSR pGhost9 empty vector); details: antibiotic strips on agar, CM17 + 5 μg/mL Em, mean of three biological replicates
Method: as §1

[18] = system: E. faecium MUT_148 (ΔliaFSR ΔliaX pGh:PptcB:liaS); details: antibiotic strips on agar, CM17 + 5 μg/mL Em, mean of three biological replicates
Method: as §1

[19] = system: E. faecium MUT_146 (ΔliaFSR pGh:PptcB:liaSR); details: antibiotic strips on agar, CM17 + 5 μg/mL Em, mean of three biological replicates
Method: as §1

[20] = system: spontaneous E. faecium BHT-B-resistant mutants
Method: Spontaneous resistant mutants were obtained by growing E. faecium LMGT 2783 in the presence of the bacteriocin as described previously ([41]). […] The stability of changes in BHT-B sensitivity was determined by continuously subculturing mutants in BHI broth without bacteriocin. Subcultures were formed at 24-h intervals, and sensitivity to BHT-B was validated after 1, 5, and 10 passages with simultaneous control of culture purity.
as §1

[21] = system: E. faecium LMGT 2783 (WT); assay: microbe, parasite or virus in culture
Method: as §1

[22] = LMGT 2783, WT, agar plates with antibiotic strips, point where inhibition zone intersects strip, ISO-BHI medium, mean of three biological replicates
[23] = four mutants MUT_132, MUT_136, MUT_137, MUT_138, span over the mutants

Compound	MIC50 [1]	MIC50 [2]	MIC50 [3]	MIC50 [4]	MIC50 [5]	MIC50 [6]	MIC50 [7]	MIC50 [8]	MIC50 [9]	Effect of the deletions on sensitivity (in words) [11]	other results
enterocin 7 [Ent7]	0.4 µg/mL	1.6 µg/mL	1.6 µg/mL	0.4 µg/mL	1.6 µg/mL	1.6 µg/mL	0.4 µg/mL	0.4 µg/mL	1.6 µg/mL		
enterocin L50 [EntL50]	0.4 µg/mL	1.6 µg/mL	1.6 µg/mL	0.4 µg/mL	3.2 µg/mL	3.2 µg/mL	0.4 µg/mL	0.4 µg/mL	1.6 µg/mL		
[Cl-].[Na+] [NaCl]											MIC50 [10]: 6%
gramicidin	0.006 µg/mL	0.047 µg/mL	0.006 µg/mL	0.006 µg/mL	0.047 µg/mL	0.047 µg/mL	0.006 µg/mL	0.006 µg/mL	0.047 µg/mL	unaffected	
CCCCCCCCCC(=O)N[C@@H](Cc1c[nH]c2ccccc12)C(=O)N[C@H](CC(N)=O)C(=O)N[C@@H](CC(=O)O)C(=O)N[C@@H]1C(=O)NCC(=O)N[C@@H](CCCN)C(=O)N[C@@H](CC(=O)O)C(=O)N[C@H](C)C(=O)N[C@@H](CC(=O)O)C(=O)NCC(=O)N[C@H](CO)C(=O)N[C@@H]([C@H](C)CC(=O)O)C(=O)N[C@@H](CC(=O)c2ccccc2N)C(=O)O[C@@H]1C [DAP, daptomycin]											Fold increase in sensitivity relative to WT [11]: 48 fold; MIC [12]: 0.38 µg/mL; MIC [13]: 6 µg/mL; MIC [14]: 0.38 µg/mL; MIC [15]: 8 µg/mL; MIC [16]: 12 µg/mL; MIC [17]: 0.38 µg/mL; MIC [18]: 0.38 µg/mL; MIC [19]: 3 µg/mL; DAP MIC of the BHT-B-resistant mutants ([20]; BHT-B-resistant mutants obtained, antibiotic strips): ≤ 8 µg/mL; MIC [21, 22]: 3 µg/mL (≈ 1.85 µM)
CNC(C)C1CCC(N)C(OC2C(N)CC(N)C(OC3OCC(C)(O)C(NC)C3O)C2O)O1 (stereo not shown) [GEN, gentamicin]										unaffected	Fold-lower sensitivity than that of WT E. faecium ([20]; {}): 2-8 fold; MIC ([21]; Enterococcus faecium): 4 µg/mL (≈ 8.38 µM)
salivaricin C [SalC]	12.5 µg/mL	50 µg/mL	25 µg/mL	12.5 µg/mL	50 µg/mL	50 µg/mL	12.5 µg/mL	12.5 µg/mL	50 µg/mL		Fold-lower sensitivity than that of WT E. faecium [20, 23]: no more than 4 fold
weissellicin M [WelM]	6.3 µg/mL	25 µg/mL	6.3 µg/mL	6.3 µg/mL	50 µg/mL	50 µg/mL	6.3 µg/mL	6.3 µg/mL	25 µg/mL	unaffected	
ramoplanin	0.3 µg/mL	0.3 µg/mL	0.4 µg/mL	0.3 µg/mL	0.6 µg/mL	0.6 µg/mL	0.3 µg/mL	0.3 µg/mL	0.3 µg/mL	unaffected	
NC[C@H]1O[C@H](O[C@H]2[C@H](O)[C@@H](O[C@H]3O[C@H](CO)[C@@H](O)[C@H](N)[C@H]3O)[C@H](N)C[C@@H]2N)[C@H](O)[C@@H](O)[C@@H]1O [KAN, kanamycin]										unaffected	MIC [12]: 32 µg/mL; MIC [13]: 64 µg/mL; MIC [14]: 32 µg/mL; MIC [15]: 128 µg/mL; MIC [16]: 128 µg/mL; MIC [17]: 32 µg/mL; MIC [18]: 32 µg/mL; MIC [19]: 64 µg/mL; MIC [21, 22]: 32 µg/mL (≈ 66 µM)
bacitracin											MIC [12]: 16 µg/mL; MIC [13]: 24 µg/mL; MIC [14]: 24 µg/mL; MIC [15]: 24 µg/mL; MIC [16]: 16 µg/mL; MIC [17]: 24 µg/mL; MIC [18]: 16 µg/mL; MIC [19]: 16 µg/mL; MIC [21, 22]: 32 µg/mL
nisin (ITSISLCTPGCKTGALMGCNMKTATCHCSIHVSK; not fully specified (some residues, bridges); cysteine pairing not given here; also: lantibiotic; UniProt P13068 24-57, looked up)	8 µg/mL	16 µg/mL	125 µg/mL	8 µg/mL	16 µg/mL	16 µg/mL	8 µg/mL	8 µg/mL	16 µg/mL		Fold increase in sensitivity relative to WT [11]: 16 fold; Fold-lower sensitivity than that of WT E. faecium [20, 23]: no more than 4 fold
